These results are taken from PMC6351562, “Structure, function, and inhibition of drug reactivating human gut microbial β-glucuronidases” (Scientific Reports, 2019).

The target of assay [1] is T1, Ruminococcus gnavus GUS (RgGUS) (Mediterraneibacter gnavus, UniProt A0A2N5PVZ8).
T1 sequence (A0A2N5PVZ8 1-603): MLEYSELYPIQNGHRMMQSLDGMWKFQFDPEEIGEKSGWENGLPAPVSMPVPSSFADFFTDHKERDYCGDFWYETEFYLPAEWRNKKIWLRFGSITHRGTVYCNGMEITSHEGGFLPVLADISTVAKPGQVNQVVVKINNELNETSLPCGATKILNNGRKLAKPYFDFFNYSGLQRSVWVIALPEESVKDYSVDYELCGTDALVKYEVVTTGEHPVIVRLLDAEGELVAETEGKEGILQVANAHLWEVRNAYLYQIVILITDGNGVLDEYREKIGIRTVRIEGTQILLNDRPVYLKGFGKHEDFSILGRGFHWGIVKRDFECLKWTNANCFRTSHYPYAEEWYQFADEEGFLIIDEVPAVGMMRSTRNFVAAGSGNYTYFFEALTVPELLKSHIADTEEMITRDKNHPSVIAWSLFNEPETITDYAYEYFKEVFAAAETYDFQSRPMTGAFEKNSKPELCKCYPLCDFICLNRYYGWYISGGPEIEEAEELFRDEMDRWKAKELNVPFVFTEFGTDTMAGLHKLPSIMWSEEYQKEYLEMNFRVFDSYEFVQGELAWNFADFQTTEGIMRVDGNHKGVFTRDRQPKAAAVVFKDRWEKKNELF
The assay is classed as biochemical. The settings on record: pNPG as substrate; optimal pH 6.5; apparent value estimated at low pNPG concentrations.

Assay [2] deals with Clostridium perfringens GUS (CpGUS) (Clostridium perfringens, UniProt Q8VNV4). To be noted: pH 6.5.
In another assay the target is E. coli GUS (EcGUS) (Escherichia coli, UniProt P05804). To be noted: pNPG as substrate; optimal pH 7.4; cited from earlier work.
Chain of E. coli GUS (EcGUS) (P05804 whole entry): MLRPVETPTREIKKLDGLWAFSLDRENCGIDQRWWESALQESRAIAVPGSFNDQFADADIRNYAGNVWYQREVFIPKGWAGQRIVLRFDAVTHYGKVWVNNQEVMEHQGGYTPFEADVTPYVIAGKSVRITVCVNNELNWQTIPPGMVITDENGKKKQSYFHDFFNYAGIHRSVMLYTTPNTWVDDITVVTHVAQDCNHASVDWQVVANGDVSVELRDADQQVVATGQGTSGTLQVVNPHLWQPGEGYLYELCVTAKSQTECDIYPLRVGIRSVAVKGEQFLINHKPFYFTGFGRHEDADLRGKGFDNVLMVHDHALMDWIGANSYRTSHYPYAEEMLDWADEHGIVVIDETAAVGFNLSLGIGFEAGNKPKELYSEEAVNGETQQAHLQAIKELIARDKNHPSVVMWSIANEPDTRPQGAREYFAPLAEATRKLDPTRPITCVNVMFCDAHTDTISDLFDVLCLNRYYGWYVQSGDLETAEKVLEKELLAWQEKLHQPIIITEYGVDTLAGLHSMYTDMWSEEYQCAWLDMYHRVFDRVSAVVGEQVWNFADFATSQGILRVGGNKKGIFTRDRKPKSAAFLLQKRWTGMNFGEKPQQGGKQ
Assay [3] addresses T2, Faecalibacterium prausnitzii GUS (FpGUS) (Faecalibacterium duncaniae, UniProt C7H4D2).
T2 sequence (C7H4D2 1-608): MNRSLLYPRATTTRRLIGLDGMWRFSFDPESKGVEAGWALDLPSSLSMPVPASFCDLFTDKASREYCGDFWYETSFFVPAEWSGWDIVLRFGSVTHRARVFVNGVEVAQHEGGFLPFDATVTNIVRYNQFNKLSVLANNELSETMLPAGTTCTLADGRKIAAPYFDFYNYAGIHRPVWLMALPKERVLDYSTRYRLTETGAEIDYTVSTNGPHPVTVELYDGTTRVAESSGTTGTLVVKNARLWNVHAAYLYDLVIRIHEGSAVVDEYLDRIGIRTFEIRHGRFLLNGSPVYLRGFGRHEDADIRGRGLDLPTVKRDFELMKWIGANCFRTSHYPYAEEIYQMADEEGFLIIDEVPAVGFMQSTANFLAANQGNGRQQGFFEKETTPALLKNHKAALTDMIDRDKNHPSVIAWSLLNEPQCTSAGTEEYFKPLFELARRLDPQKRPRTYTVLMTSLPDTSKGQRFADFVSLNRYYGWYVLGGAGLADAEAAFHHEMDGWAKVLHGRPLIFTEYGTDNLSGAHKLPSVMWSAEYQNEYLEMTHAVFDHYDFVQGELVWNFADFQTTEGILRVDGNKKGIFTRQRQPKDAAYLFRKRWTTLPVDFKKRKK
To be noted: pNPG as substrate; optimal pH 6.0; 37 °C.

The target of assay [4] is T3, Lactobacillus rhamnosus GUS (LrGUS) (Lacticaseibacillus rhamnosus, UniProt A0A2A5L2J1).
T3 sequence (A0A2A5L2J1 1-603): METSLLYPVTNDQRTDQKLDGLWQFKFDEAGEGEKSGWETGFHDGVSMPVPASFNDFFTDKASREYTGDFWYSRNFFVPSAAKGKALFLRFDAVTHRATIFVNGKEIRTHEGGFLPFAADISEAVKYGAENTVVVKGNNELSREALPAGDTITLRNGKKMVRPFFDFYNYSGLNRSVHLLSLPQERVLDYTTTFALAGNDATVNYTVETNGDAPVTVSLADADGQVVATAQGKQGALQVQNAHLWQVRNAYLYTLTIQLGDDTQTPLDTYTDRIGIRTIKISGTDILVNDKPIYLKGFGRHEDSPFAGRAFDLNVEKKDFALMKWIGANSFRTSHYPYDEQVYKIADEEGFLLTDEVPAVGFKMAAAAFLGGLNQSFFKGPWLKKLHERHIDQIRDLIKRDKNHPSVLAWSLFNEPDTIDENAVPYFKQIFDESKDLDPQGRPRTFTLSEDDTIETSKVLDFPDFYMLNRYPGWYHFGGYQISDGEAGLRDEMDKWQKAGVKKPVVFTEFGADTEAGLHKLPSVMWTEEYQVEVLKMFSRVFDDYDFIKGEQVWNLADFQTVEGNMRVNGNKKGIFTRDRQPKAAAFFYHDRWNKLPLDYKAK
To be noted: pNPG as substrate; optimal pH 4.5; 37 °C.

The next assay concerns EeGUS (−)EeLoop mutant. In words: pNPG processing by EeGUS (−)EeLoop mutant. To be noted: deletion of residues M149 to A159 (Ee Extra Loop); Fig. S13c.
A further assay relates to BdGUS (−)CBM Loop mutant. In words: pNPG processing by BdGUS (−)CBM Loop mutant. To be noted: deletion of CBM loop of BdGUS; Fig. S13a.
Assay [5] has as its system GUS activity in faecal extracts. The experiment in a line: pNPG processing assay in faecal extracts of DCF-treated mice. The settings on record: single dose DCF 60 mg/kg intraperitoneal, faeces 12 hours after, 1 mM pNPG, pH 7.4.

On to `O=C(O)[C@H]1O[C@@H](Oc2ccc([N+](=O)[O-])cc2)[C@H](O)[C@@H](O)[C@@H]1O` [pNPG, p-nitrophenol-β-D-glucuronide], for which the “kcat” value in assay [1] is 2.8 s⁻¹; in assay [2] it was 57 s⁻¹; in assay [3] it was 58 s⁻¹; in assay [4], 10.0 s⁻¹. Also, the Km on E. coli GUS (EcGUS) is 130 ± 10 µM. The “kcat (s^−1)” value on E. coli GUS (EcGUS) was 120 ± 10^a s^−1. Besides, the “pNPG cleavage rate of mutant relative to WT” value in the assay with EeGUS (−)EeLoop mutant worked out at 9%. In addition, the “activity of mutant with pNPG (in words)” value in the assay with BdGUS (−)CBM Loop mutant is “inactive”.
On to `O=C(O)Cc1ccccc1Nc1c(Cl)cccc1Cl` [DCF, diclofenac], for which the “GUS activity (pNPG processing) in faecal extracts compared to pre-treatment levels” value in assay [5] is recorded as “increases GUS activity”.
